# Legend:
# [1] = molecular target: T1, human type 2 17β-hydroxysteroid dehydrogenase (Homo sapiens, UniProt P37059); assay: Enzymatic assay for type 2 17β-HSD; type: biochemical; settings: Table 4′, bracketed values, 3 · 10^−8M
# T1 construct: expressed in transfected cells; host or cells: 293 cells, transient transfection; microsomal fraction (100 000×g pellet)
# T1 sequence (P37059 1-387): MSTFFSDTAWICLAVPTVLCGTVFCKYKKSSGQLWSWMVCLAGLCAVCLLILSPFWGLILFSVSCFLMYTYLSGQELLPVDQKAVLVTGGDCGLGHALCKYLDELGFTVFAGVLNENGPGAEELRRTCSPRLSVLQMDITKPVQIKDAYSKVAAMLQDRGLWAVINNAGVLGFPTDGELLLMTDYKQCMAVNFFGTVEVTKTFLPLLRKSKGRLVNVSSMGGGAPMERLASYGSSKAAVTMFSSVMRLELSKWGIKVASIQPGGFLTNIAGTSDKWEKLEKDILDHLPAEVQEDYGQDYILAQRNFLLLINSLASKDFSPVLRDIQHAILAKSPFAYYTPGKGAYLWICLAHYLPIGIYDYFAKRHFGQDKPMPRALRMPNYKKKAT
# Method: The manner in which IC50 was determined is described in “Efficacy of Preferred Inhibitors: VI. Enzymatic assay for types 1, 2, and 3 17β-HSD and types 1 and 3 3α-HSD”. […] numbers of IC50 are desirable. Blank means that a determination was not done. […]
# Enzyme sources. 293 cells transiently transfected with expression vectors encoding types 1, 2 and 3 17β-HSD (Luu-The et al., J. Steroid Biochem. Molec. Biol., 55: 581-587, 1995), types 1 and 2 5α-reductase (Luu-The et al., J. Invest. Dermatol., 102: 221-226, 1994) and types 1 and 3 3α-HSD (Dufort et al. Biochem. Biophys. Res. Commun. 228: 474-479, 1996), using the calcium phosphate procedure (Kingston et al., In: Current Protocols in Molecular Biology. Edited by E. M. Ausbel, R. Brent, R. E. Kingston, D. D. Moore, J. G. Seidman, J. A. Smith, K. Struhl. John Wiley & Sons, New York, pp. 9.1.1-9.1.9, 1991; Luu-The et al., J. Invest. Dermatol., 102: 221-226, 1994). For assays using cell subfractions, cells were sonicated in 50 mM sodium phosphate buffer (pH 7.4), containing 20% glycerol and 1 mM EDTA and centrifuged at 10 000×g for 30 min before centrifugation for 100 000×g for 1 h to separate the mitochondrial and microsomal fractions, respectively. The cytosol fractions (100 000×g supernatant) was used to determine type 1 activity while the microsomal fraction (pellet at 100 000×g) was used for measurement of types 2 and 3 17β-HSD activities.
# Incubation. The enzymatic reaction was carried out at 37° C. in 1 ml of 50 mM sodium phosphate buffer, pH 7.4, containing 20% glycerol, 1 mM EDTA, and 2 mM cofactors (NADPH or AND^+) for 1 h in the presence of 0.1 μM ^14C-labeled substrate: estrone and 4-dione for types 1 and […] 17β-HSD, respectively, testosterone for type 2 17β-HSD as well as types 1 and 2 5α-reductases, DHT for types 1 and 3 3α-HSD activities, and the indicated concentration of inhibitor.
# Extraction of metabolites, migration on TLC and quantification were as described above for the assay of type 5 17β-HSD.
# [2] = test system: Shionogi mouse mammary carcinoma cells; assay: Antiandrogenic activity: inhibition of DHT-induced proliferation of Shionogi cells; type: cell-based; settings: Table 4′, DHT-induced proliferation; for Antiandrogenic Activity Shionogi, DHT E^−6: E^−6 (10^−6 M)
# Method: The manner in which the inhibition is determined is described in “Other Tests; B-Androgenic/Antiandrogenic Activity”. Lower numbers are desirable. ND means that a determination was not done.
# (§1) Androgenic/antiandrogenic activity of some preferred compounds has been measured using the Shionogi mouse mammary carcinoma cells.
# (§2) Minimal essential culture medium (MEM), non-essential amino acids, and fetal calf serum were purchased from Flow Laboratories. In order to remove endogenous steroids, serum was incubated overnight at 4° C. with 1% activated charcoal (Norit A, Fisher) and 0.1% Dextran T-70 (Pharmacia). A 2-h supplementary adsorption was performed at 25° C. in order to further remove protein-bound steroids. Serum was also inactivated by a 20-min incubation at 56° C.
# (§3) 5α-dihydrotestosterone (DHT) was obtained from Steraloids. The antiandrogen hydroxyflutamide (OH-FLU) was kindly supplied by Drs. T. L. Nagabuschan and R. Neri (Schering Corporation, Kenilworth, U.S.A.).
# (§4) Shionogi male mice bearing androgen-sensitive mammary tumors were obtained from Drs. Keishi Matsumoto, Osaka, Japan, and Yvonne Lefebvre, Ottawa, Canada. For primary culture, tumors were excised and washed in ice-cold sterile 25 mM Hepes buffer (137 mM NaCl; 5 mM KCl; 0.7 mM Na2HPO4; 10 mM glucose, pH 7.2). After mincing with scissors, the tumor minces were digested for 2 h at 37° C. in Hepes buffer containing 3.8 mg/ml collagenase (Clostridium, Boehringer), 1.5 mg/ml hyaluronidase II (Sigma), and 3% bovine serum albumin fraction V (Schwartz-Mann). Dispersed cells were collected by centrifugation (500×g for 10 min), washed twice by suspension in minimal essential medium (MEM) containing 5% dextran-coated charcoal-treated fetal calf serum (DCC-FCS), 1% non-essential amino acids, 10 IU/ml penicillin, 50 μg/ml streptomycin, and 100 nM dihydrotestosterone (DHT) (Steraloids).
# (§5) Cells were plated in the same medium at a density of 75 000 cells/ml in 75 cm^2 flasks under an atmosphere of 5% carbon dioxide in air at 37° C. The medium was changed weekly. The steroids and antisteroids were dissolved in ethanol and kept in stock solutions chosen to yield final ethanol concentrations less than 0.01% in the culture medium.
# (§6) Cells were subcultured at near-confidence by gentle digestion in a solution of 0.1% pancreatin (Flow Laboratories) in Hepes buffer containing 3 mM ethylenediaminetetraacetic acid (EDTA) (pH 7.2). Cells were pelleted by centrifugation, resuspended in culture medium, counted in a Coulter counter, and replated as described above. Soft agar cloning was performed as described (Stanley et al., Cell 10: 35-44, 1977) in the presence of 100 nM DHT.
# (§7) Cells were plated in 24-well plates at a density of 20 000 cells/well. The indicated increasing concentrations of agents were added to triplicate dishes, and cells were grown for 10-12 days with changes of medium every 3-4 days. Cell number was measured by direct counting in a Coulter counter.
# (§8) ED50 values of action of DHT and glucocorticoids were calculated according to a least-square regression as described (Rodbard, Endocrinology 94: 1427-1431, 1974). Statistical significance was calculated according to a multiple-range test (Kramer, Biometrics 12: 307-310,1956).
# [3] = test system: Shionogi mouse mammary carcinoma cells; assay: Androgenic activity: stimulation of proliferation of Shionogi cells; type: cell-based; settings: Table 4′
# Method: In column 9, the androgenic activity of preferred type 5 inhibitors expressed as the percentage of stimulation of proliferation of Shionogi cells at concentrations of 10^−7 M (left number) and 10^−6 M (right number) of inhibitor. The manner in which the stimulation is determined is described in “Other Tests; B-Androgenic/Antiandrogenic Activity”. Lower numbers are desirable. ND means that a determination was not done.
# as §1, §2, §3, §4, §5, §6, §7, §8
# [4] = molecular target: T2, human type 5 17β-hydroxysteroid dehydrogenase (Homo sapiens, UniProt P42330); assay: Inhibition of human type 5 17β-HSD activity in transfected 293 cells; type: cell-based; settings: Table 4′; read-out: Inhibition Type V 17β-HSD IC50
# T2 construct: screen again a human placental λgt11 cDNA to get the full length cDNA clone; expressed in transfected cells; host or cells: human embryonal kidney 293 cells (pCMV / pCMV-neo vector)
# T2 sequence (P42330 1-323): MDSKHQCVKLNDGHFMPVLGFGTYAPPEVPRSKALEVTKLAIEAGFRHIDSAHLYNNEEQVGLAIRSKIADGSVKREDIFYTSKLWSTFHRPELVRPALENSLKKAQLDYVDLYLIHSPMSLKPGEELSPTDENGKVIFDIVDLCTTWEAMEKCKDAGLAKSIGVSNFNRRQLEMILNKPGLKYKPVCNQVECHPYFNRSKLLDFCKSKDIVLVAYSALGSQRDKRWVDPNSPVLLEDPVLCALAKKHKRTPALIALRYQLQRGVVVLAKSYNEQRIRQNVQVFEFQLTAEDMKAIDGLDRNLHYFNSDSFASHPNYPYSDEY
# Method: The manner in which IC50 was determined is described in “Efficacy of the Preferred Inhibitors”. Lower numbers for IC50 are desirable.
# Using a oligoprimer pair (5′-GGA-AAT-CGT-GAC-AGG-GAA-TGG-ATT-CCA-AAC-AG-3′, 5′-GGA-ATT-CTT-TAT-TGT-ATT-TCT-GGC-CTA-TGG-AGT-GAG-3′) derived from human aldoketoreductase (Qin et al., J. Steroid Biochem. Molec. Biol. 46: 673-679, 1993) and polymerase chain reaction (PCR), we have amplified from a human placental λgt11 cDNA library (Clontech Laboratories Inc., Palo Alto, Calif.) a cDNA fragment that was used as probe to screen again a human placental λgt11 cDNA to get the full length cDNA clone. The amplified cDNA fragment was purified on agarose gel and labeled with [α^32P]dCTP (Amersham Corp.) using the random primer labeling kit from Pharmacia Inc. PCR amplification reaction medium contained 50 mM KCl, 10 mM Tris-HCl, pH 8.3, 0.1% gelatin, 1 mM MgCl2, 250 μM dNTP, 0.25 μM oligonucleotide primers, and 200 ng of DNA prepared from human placental λgt11 cDNA library. The aqueous phase was overlaid with 75 μL of mineral oil to avoid evaporation. The mixture was heated at 98° C. for 5 min, following the temperature reduction to 72° C., 1 unit of Taq DNA polymerase was added. Using a DNA Thermal Cycler (Perkin-Elmer Corp.), 30 cycles of amplification were carried out using a step program (94° C., 1 min; 60° C., 1 min; and 72° C., 1 min)/cycle.
# Approximately 5×10^5 recombinant phage plaques were screened with 1.5×10^6 cpm/ml of the probe. Prehybridization was performed for 4 h at 42° C. in 50% formamide, 5× Denhardt's solution (1× Denhardt's being 0.02% polyvinyl pyrrolidone, 0.02 Ficoll, 0.02 bovine serum albumin), 5×SSPE (1×SSPE being 0.18M NaCl, 10 mM NaH2PO4, pH 7.4, 1 mM EDTA), 0.1% SDS, and 100 μg/ml yeast tRNA. The probe was denatured by heating at 100° C. for 5 min, before being added to the hybridization solution at 42° C. overnight. Filters were then washed twice at room temperature in 2×SSC (1×SSC being […], pH 7.0), 0.1% SDS, and twice in 0.1×SSC, 0.1% SDS at 60° C. Positive recombinant plaques were purified by replating twice and grown in liquid culture. Phage DNA were isolated by centrifugation for 90 min at 105,000×g, and DNA was then isolated by phenol extraction and precipitation with isopropanol (Karen et al. 1987; In: Current Protocols in Molecular Biology (F. M. Ausubel, R. Brent, E. Kingston, D. D. Moore, T. G. Seidman, T. A. Smith and K. Struhl, eds), Wiley & Sons, New York, pp. 1.13.1-1.13.6).
# The phage DNA were digested with EcoRI restriction enzymes and the resulting cDNA fragments were inserted into the EcoRI site downstream to the cytomegalovirus (CMV) promoter of the pCMV vector (kindly provided by Dr. Matthew, Cold Spring Harbor, N.Y., USA). Recombinant pCMV plasmids were amplified in Escherichia Coli DH5α competent cells, and were isolated by alkaline lysis procedure (Maniatis et al., In: Molecular cloning: a laboratory manual, Cold Spring Harbor Laboratory., 1982). Sequencing of double-stranded plasmid DNA was performed according to the dideoxy chain termination method (Sanger et al., PNAS 74: 5453-5467, 1977) using a T7 DNA polymerase sequencing kit (Pharmacia LKB Biotechnology). To avoid errors, all sequences were determined by sequencing both strands of the DNA. Oligonucleotide primers were synthesized in our laboratory with a 394 DNA/RNA synthesizer (Applied Biosystem).
# The pCMV vector contain 576 nucleotides of the pCMV promoter (followed by 432 bp of small t intron (fragment 4713-4570) and poly adenylation signal (2825-2536)of SV40, followed by 1989 bp of the Pvu II(628)-AatII (2617) fragment from pUC 19 vector (New England Biolabs) that contains an E. Coli origin of replication and an ampicillin resistance gene for propagation in E. Coli. […]
SMILES,Inhibition Type 2 17β-HSD Activity [% Inh. at 3 · 10^−8M] [1],"Antiandrogenic Activity Shionogi, DHT E^−6 [2] [%]","Antiandrogenic Activity Shionogi, DHT E^−7 [2] [%]","Androgenic Activity Shionogi, Basal E^−6 [3] [%]","Androgenic Activity Shionogi, Basal E^−7 [3] [%]",IC50 [4] [nM],inhibition ([1]; read-out: Inhibition Type 2 17β-HSD Activity [% Inh. at 3 · 10^−8M]) [%]
"CCC1(CC)CC[C@@]2(CC[C@H]3[C@@H]4CCc5cc(OC)ccc5[C@H]4CC[C@@]32C)OC1=O [EM-1419, 3-Methoxy-1,3,5(10)-estratrien-17(R)-spiro-2′-(5′,5′-diethyl-6′-oxo)tetrahydropyran]",[74] %,−64,2,−29,16,,
"CCC1(CC)CC[C@@]2(CC[C@H]3[C@@H]4CCc5cc(O)ccc5[C@H]4CC[C@@]32C)OC1=O [EM-1416, 1,3,5(10)-Estratrien-3-ol-17(R)-spiro-2′-(5′,5′-diethyl-6′-oxo)tetrahydropyran]",[76] %,−41,26,−4,28,,
CC1(C)CCC2(CCC3C4CC(=O)c5cc(O)ccc5C4CCC32C)OC1=O (stereo not drawn) [EM-01608-D],,,,,,3.6 ± 0.5,58
